Experimental data reported in ChEMBL document CHEMBL3301464, “MMV Malaria Box anti-babesial screening”.

Columns and labels:
[1] = (§1) MMV: Anti-babesial activity assay. Parasite pRBCs at 1% parasitemia were cultivated in 100 ul with 96-well plates at 2.5% and 5% hematocrits. The parasites were cultivated in triplicate for 4 days without replacement of the medium for each concentration of the compound.; type: functional, Babesia bovis
[2] = as §1; type: functional, Babesia caballi
[3] = as §1; type: functional, Babesia bigemina
[4] = as §1; type: functional, Babesia equi

Compound	IC50 [1] [µM]	IC50 [2] [µM]	IC50 [3] [µM]	IC50 [4] [µM]
N#Cc1nc(Cc2cccc3ccccc23)oc1N1CCN(C(c2ccccc2)c2ccccc2)CC1	16.1	5.09	19.8	12
CCOC(=O)C1(Cc2ccccc2)CCN(Cc2cccc(OC)c2O)CC1	1.2	1.39	13.2	15.2
CCN(CC)c1ccc(NC(=O)c2cccs2)cc1	24.1	10	17.5	13.4
COc1cc(SC)ccc1C(=O)N1CCCC(C)C1 (stereo not given)	19.4	12.3	> 25	5.79
CCCCCCc1cc(O)c2c3c(c(=O)oc2c1)CCC(C)C3 (stereo not given)	5.1	15.9	10	3.26
Cc1ccc(Cn2c(N3CCC(C(=O)NCc4cccs4)CC3)nc3ccccc32)cc1	17.7	> 25	10	12.9
COc1ccc(C=C2SC(Nc3ccc(F)cc3)=NC2=O)c(OC)c1	0.1	0.836	0.082	4.61
C=CC12CCN(CC1)C(C(O)c1ccnc3ccc(OC)cc13)C2 (stereo not given)	17.3	13.1	14.4	3.21
c1ccc(/C2=N/c3ccccc3/N=C(/c3ccccc3)c3ccccc32)cc1	17.7	4.91	10	15.2
CCCCCCC(O)(c1ccc(F)cc1)C(CN1CCOCC1)c1ccccc1 (stereo not given)	2.63	0.29	9.87	10
CCOc1cc(Cl)c(C(C)NC(=O)c2ccccc2)cc1OCC (stereo not given)	> 25	12.4	4.19	10
Cc1ccc(Cl)cc1N1CCN(CCCNC(=O)C2CCN(c3nc4ccccc4[nH]3)CC2)CC1	3.03	1	2.4	4.77
COc1ccc(-c2cc(=O)oc3c4c(ccc23)OCN(Cc2ccc(F)cc2)C4)cc1	2.95	0.071	0.29	14.8
COc1cc(C(=O)Nc2ccc(-c3nc4ccccc4[nH]3)cc2)cc(OC)c1OC	13.3	11	1	15.9
CCOC(=O)C1=C(C)N=c2sc(=Cc3ccccc3O)c(=O)n2C1c1ccc(OC)c2ccccc12 (stereo not given)	21.7	8.43	16	10
O=C(Nc1cccc(C(F)(F)F)c1)c1cc(Cl)ccc1O	0.82	5.21	3.71	5.1
CCCCCn1c(=N)n(CC(O)COc2cccc(C)c2)c2ccccc21 (stereo not given)	0.08	5.9	0.1	4.52
CCCCNCC(O)(c1ccc(Cl)cc1)c1ccc(Cl)cc1	15.5	5.35	0.078	1
C=C(C)CCC(C)N1CCC(N2CCC(C(=O)NCCc3ccccc3)CC2)CC1 (stereo not given)	4.37	12.9	2.4	4.89
FC(F)(F)c1cccc(CNC2CCN(CCc3ccccc3)CC2)c1	15.6	5.35	0.36	1.87
Cc1c(C)n(CC(O)CNC2CCCCC2C)c2ccccc12 (stereo not given)	0.1	2.49	4.09	4.76
OC(CNCC1CCCO1)Cn1c2ccc(Cl)cc2c2cc(Cl)ccc21 (stereo not given)	21.1	10	0.79	11.9
Cc1cc(Nc2ccc(C)c(Cl)c2)n2nc(C(F)(F)F)nc2n1	15	0.69	14.8	> 25

Compound	IC50 [1] [µM]	IC50 [2] [µM]	IC50 [3] [µM]	IC50 [4] [µM]
CN1CCN(c2c3c(c(C#N)c4nc5ccccc5n24)CCC3)CC1	13.3	> 25	19.2	8.25
COc1cccc(Nc2nc(N)c3ccccc3n2)c1	0.12	2.95	0.057	17.2
COc1cc2c(cc1OC)C1=NNC(=O)C1=NC(C)(C)C2	6.8	4.48	12.9	3.61
COc1cccc(C(=O)NC(c2ccc(C)cc2)c2cc(Cl)c3cccnc3c2O)c1 (stereo not given)	4.68	16.1	1.4	3.73
Cc1ccc(OCCCCCCNCCO)c(C)c1	12.1	13.3	9.88	5.09
CCCCC(O)(c1ccc(Cl)cc1)C(CN1CCOCC1)c1ccc(Cl)cc1 (stereo not given)	11.9	0.55	0.1	13.2
COc1cc(CNCCc2ccc(Cl)cc2)cc(OC)c1O	10	6.85	5.81	12.6
CN(C)c1ccc(C=Cc2nc(=O)c3ccccc3o2)cc1	16.2	14.6	16.8	11.5
CCCCOc1ccc(C(=O)Nc2cc(C)on2)cc1	21.2	0.083	25	6.99
CCOC(=O)C1CCN(C(=O)CN2C(=O)c3ccccc3C2c2c[nH]c3ccccc23)CC1 (stereo not given)	> 25	5.35	25	4.19
CC1CCN(Cc2c(O)ccc3cc(-c4nc5ccccc5s4)c(=O)oc23)CC1	6.9	3.73	5.5	4.27
O=C(Nc1cccc(C2=NCCN2)c1)Nc1cccc(C2=NCCN2)c1 [IMIDOCARB]	0.059	0.081	0.5	0.052
O=C(Nc1ccc(C23CC4CC(CC(c5ccccc5)(C4)C2)C3)cc1)c1cccs1	8.1	16.8	10.4	15.2
CN(C)c1ccc(N=Cc2ccc(N3CCOCC3)cc2)cc1	0.068	0.043	0.068	0.63
Oc1ccc2ccccc2c1CNc1nc2ccccc2[nH]1	6.81	3.04	10	4.37
Cc1cc(N(C)C)nc(Nc2ccc(NC(=O)Nc3ccccc3)cc2)n1	0.078	14.6	0.06	12.1
COc1ccc(CNC(=O)c2cc3c(=O)n4ccccc4nc3n(CCc3ccccc3)c2=N)cc1	0.1	0.686	4.27	4.74
COc1ccc(OC)c(C2C3=C(CC(C)(C)CC3=O)N(c3ccc(Cl)c(Cl)c3)C3=C2C(=O)CC(C)(C)C3)c1	10	0.14	17.8	10.7
Brc1ccc(Nc2nc3ccccc3nc2Nc2ccc(Br)cc2)cc1	2.09	5.09	3.73	4.53
Oc1ccccc1CN1CCN(C(c2ccccc2)c2ccccc2)CC1	15.3	3.72	25	4.37
CCOc1ccc2nc(C)cc(Nc3ccc(Br)cc3)c2c1	1.07	15.2	0.6	7.13
COc1ccc(C(=O)C(CCC(CNC(C)(C)C)C(=O)c2ccc(OC)cc2)CNC(C)(C)C)cc1 (stereo not given)	0.57	4.68	2.95	0.17
